Counter-ions that a name gives are not always drawn.

Data on two compounds can be found in patent publication US20110218506A1, “AMOROLFINE PATCH FOR THE TREATMENT OF ONYCHOMYCOSIS” (Galderma Research & Development, priority 2004, published 2011).

The series in a line: Solubility in formulation solvents. Format: physicochemical.

Regarding `O=C1CCCCCCCCCCCCCCO1` [Exaltolide], the “solubility in ethyl acetate” value (ethyl acetate) is recorded as “highly soluble”. Consider `CCC(C)(C)c1ccc(CC(C)CN2C[C@@H](C)O[C@@H](C)C2)cc1` (stereo partly drawn) [amorolfine HCl, hydrochloride of the cis-4-[3-[4-(1,1-dimethyl-propyl)phenyl]-2-methylpropyl]-2,6-dimethyl-morpholine], for which the solubility in ethanol result (ethanol) is recorded as “particularly soluble”.
